Results from PubChem BioAssay (NCI).
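All cell lines were grown in 96-well plates and treated with compound for 48 hours. GI50 = concentration required for 50% inhibition of growth. The concentration for full growth arrest is given as TGI.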

Legend:
Assay in all cases: growth of human tumour cells (NCI), 48 h
[1] = test system: MDA-MB-231 breast
[2] = test system: MALME-3M melanoma
[3] = test system: A549 NSCLC
[4] = test system: UACC-257 melanoma
[5] = test system: SNB-19 CNS
[6] = test system: T-47D breast
[7] = test system: CCRF-CEM leukemia
[8] = test system: K-562 leukemia
[9] = test system: SNB-75 CNS
[10] = test system: RPMI-8226 leukemia
[11] = test system: HT29 colon
[12] = test system: OVCAR-8 ovarian
[13] = test system: HCT-116 colon
[14] = test system: UACC-62 melanoma
[15] = test system: KM12 colon
[16] = test system: NCI-H23 lung
[17] = test system: SF-295 CNS
[18] = test system: U251 CNS
[19] = test system: EKVX NSCLC
[20] = test system: OVCAR-4 ovarian
[21] = test system: A498 renal
[22] = test system: HOP-92 NSCLC
[23] = test system: DU-145 prostate
[24] = test system: NCI-H226 lung
[25] = test system: MOLT-4 leukemia
[26] = test system: BT-549 breast
[27] = test system: HCT-15 colon
[28] = test system: SK-OV-3 ovarian
[29] = test system: NCI-H460 lung
[30] = test system: HS 578T breast
[31] = test system: SK-MEL-28 melanoma
[32] = test system: HL-60(TB) leukemia
[33] = test system: SF-539 CNS
[34] = test system: NCI/ADR-RES ovarian
[35] = test system: OVCAR-5 ovarian
[36] = test system: TK-10 renal
[37] = test system: NCI-H522 lung
[38] = test system: PC-3 prostate
[39] = test system: ACHN renal
[40] = test system: M14 melanoma
[41] = test system: SK-MEL-2 melanoma
[42] = test system: 786-0 renal
[43] = test system: LOX IMVI melanoma
[44] = test system: MDA-MB-435
[45] = test system: SR leukemia
[46] = test system: MCF7 breast
[47] = test system: SW-620 colon
[48] = test system: RXF 393 renal
[49] = test system: HOP-62 NSCLC
[50] = test system: SF-268 CNS
[51] = test system: SN12C renal
[52] = test system: OVCAR-3 ovarian
[53] = test system: COLO 205 colon
[54] = test system: CAKI-1 renal

Structure (SMILES): NC(=O)c1cccnc1
- GI50 [1]: > 100 µM
- TGI [1]: > 100 µM
- GI50 [2]: > 100 µM
- TGI [2]: > 100 µM
- GI50 [3]: > 100 µM
- TGI [3]: > 100 µM
- GI50 [4]: > 100 µM
- TGI [4]: > 100 µM
- GI50 [5]: > 100 µM
- TGI [5]: > 100 µM
- GI50 [6]: > 100 µM
- TGI [6]: > 100 µM
- GI50 [7]: 5.99 µM
- TGI [7]: > 100 µM
- GI50 [8]: > 100 µM
- TGI [8]: > 100 µM
- GI50 [9]: > 100 µM
- TGI [9]: > 100 µM
- GI50 [10]: > 100 µM
- TGI [10]: > 100 µM
- GI50 [11]: > 100 µM
- TGI [11]: > 100 µM
- GI50 [12]: > 100 µM
- TGI [12]: > 100 µM
- GI50 [13]: > 100 µM
- TGI [13]: > 100 µM
- GI50 [14]: > 100 µM
- TGI [14]: > 100 µM
- GI50 [15]: > 100 µM
- TGI [15]: > 100 µM
- GI50 [16]: > 100 µM
- TGI [16]: > 100 µM
- GI50 [17]: > 100 µM
- TGI [17]: > 100 µM
- GI50 [18]: > 100 µM
- TGI [18]: > 100 µM
- GI50 [19]: > 100 µM
- TGI [19]: > 100 µM
- GI50 [20]: > 100 µM
- TGI [20]: > 100 µM
- GI50 [21]: > 100 µM
- TGI [21]: > 100 µM
- GI50 [22]: > 100 µM
- TGI [22]: > 100 µM
- GI50 [23]: > 100 µM
- TGI [23]: > 100 µM
- GI50 [24]: > 100 µM
- TGI [24]: > 100 µM
- GI50 [25]: > 100 µM
- TGI [25]: > 100 µM
- GI50 [26]: > 100 µM
- TGI [26]: > 100 µM
- GI50 [27]: > 100 µM
- TGI [27]: > 100 µM
- GI50 [28]: > 100 µM
- TGI [28]: > 100 µM
- GI50 [29]: > 100 µM
- TGI [29]: > 100 µM
- GI50 [30]: > 100 µM
- TGI [30]: > 100 µM
- GI50 [31]: > 100 µM
- TGI [31]: > 100 µM
- GI50 [32]: > 100 µM
- TGI [32]: > 100 µM
- GI50 [33]: > 100 µM
- TGI [33]: > 100 µM
- GI50 [34]: > 100 µM
- TGI [34]: > 100 µM
- GI50 [35]: > 100 µM
- TGI [35]: > 100 µM
- GI50 [36]: > 100 µM
- TGI [36]: > 100 µM
- GI50 [37]: > 100 µM
- TGI [37]: > 100 µM
- GI50 [38]: > 100 µM
- TGI [38]: > 100 µM
- GI50 [39]: > 100 µM
- TGI [39]: > 100 µM
- GI50 [40]: > 100 µM
- TGI [40]: > 100 µM
- GI50 [41]: > 100 µM
- TGI [41]: > 100 µM
- GI50 [42]: > 100 µM
- TGI [42]: > 100 µM
- GI50 [43]: > 100 µM
- TGI [43]: > 100 µM
- GI50 [44]: > 100 µM
- TGI [44]: > 100 µM
- GI50 [45]: 59.8 µM
- TGI [45]: > 100 µM
- GI50 [46]: > 100 µM
- TGI [46]: > 100 µM
- GI50 [47]: > 100 µM
- TGI [47]: > 100 µM
- GI50 [48]: > 100 µM
- TGI [48]: > 100 µM
- GI50 [49]: > 100 µM
- TGI [49]: > 100 µM
- GI50 [50]: > 100 µM
- TGI [50]: > 100 µM
- GI50 [51]: > 100 µM
- TGI [51]: > 100 µM
- GI50 [52]: > 100 µM
- TGI [52]: > 100 µM
- GI50 [53]: > 100 µM
- TGI [53]: > 100 µM
- GI50 [54]: > 100 µM
- TGI [54]: > 100 µM
